Data reported in PMC4965013, “Open Source Drug Discovery with the Malaria Box Compound Collection for Neglected Diseases and Beyond” (PLoS Pathogens, 2016).

Key:
P. falciparum = test: EC50 listed in S2 Table Metabolomics (used to set the concentration tested); type: cell-based; details: Plasmodium falciparum; EC50 used for Factor_XEC50 in metabolomics; read-out: EC50_nM
[1] = tested on: P. falciparum 3D7 trophozoites; test: Metabolomic fingerprint profiling LC-MS; type: cell-based, Plasmodium falciparum; set-up: UDP-D-glucose / ADP-D-glucose: unit not given here; details: for Acetyllysine / N-acetyl-L-ornithine / N-carbamoyl-L-aspartate / NADPH / dAMP / dCMP / dTDP / dTMP / dTTP / dihydroorotate / orotate / DLH / DLS/SDL/SID / PD / PEE / PVNF / 3-phosphoglycerate / ADP-D-glucose / ATP / CDP / D-sedoheptulose-1/7-phosphate / FAD / GMP / NAD+ / NADP+ / Octoluse Bisphosphate / Pyroglutamic acid / UDP-D-glucose / UDP-D-glucuronate / UDP-N-acetyl-glucosamine / UDP / UMP / UTP / a-ketoglutarate / citrate/isocitrate / cytidine / dATP / dGMP/AMP / fumarate / glucose-1/6-phosphate / glycerate / guanine / guanosine / hypoxanthine / indole / inosine / nicotinate / ornithine / phosphoenolpyruvate / pyruvate / ribose-phosphate / sarcosine/alanine / sn-glycerol-3-phosphate / succinate/methylmalonic acid / uridine / xanthosine: S2 Table Metabolomics; for Acetyllysine: metabolite Acetyllysine; for N-acetyl-L-ornithine: metabolite N-acetyl-L-ornithine; for N-carbamoyl-L-aspartate: metabolite N-carbamoyl-L-aspartate; for NADPH: metabolite NADPH; for dAMP: metabolite dAMP; for dCMP: metabolite dCMP; for dTDP: metabolite dTDP; for dTMP: metabolite dTMP; for dTTP: metabolite dTTP; for dihydroorotate: metabolite dihydroorotate; for orotate: metabolite orotate; for DLH: peptide DLH; for DLS/SDL/SID: peptide DLS/SDL/SID; for PD: peptide PD; for PEE: peptide PEE; for PVNF: peptide PVNF; for 3-phosphoglycerate: metabolite 3-phosphoglycerate; for ADP-D-glucose: metabolite ADP-D-glucose; for ATP: metabolite ATP; for CDP: metabolite CDP; for CDP / D-sedoheptulose-1/7-phosphate / GMP / Octoluse Bisphosphate / UDP / UMP / UTP / citrate/isocitrate / dGMP/AMP / fumarate / glucose-1/6-phosphate / glycerate / guanine / guanosine / inosine / pyruvate / sarcosine/alanine / succinate/methylmalonic acid / uridine / xanthosine: change in metabolite level after compound treatment; for D-sedoheptulose-1/7-phosphate: metabolite D-sedoheptulose-1/7-phosphate; for FAD: metabolite FAD; for GMP: metabolite GMP; for NAD+: metabolite NAD+; for NADP+: metabolite NADP+; for Octoluse Bisphosphate: metabolite Octoluse Bisphosphate; for Pyroglutamic acid: metabolite Pyroglutamic acid; for UDP-D-glucose: metabolite UDP-D-glucose; for UDP-D-glucuronate: metabolite UDP-D-glucuronate; for UDP-N-acetyl-glucosamine: metabolite UDP-N-acetyl-glucosamine; for UDP: metabolite UDP; for UMP: metabolite UMP; for UTP: metabolite UTP; for a-ketoglutarate: metabolite a-ketoglutarate; for citrate/isocitrate: metabolite citrate/isocitrate; for cytidine: metabolite cytidine; for dATP: metabolite dATP; for dGMP/AMP: metabolite dGMP/AMP; for fumarate: metabolite fumarate; for glucose-1/6-phosphate: metabolite glucose-1/6-phosphate; for glycerate: metabolite glycerate; for guanine: metabolite guanine; for guanosine: metabolite guanosine; for hypoxanthine: metabolite hypoxanthine; for indole: metabolite indole; for inosine: metabolite inosine; for 2_3-Diphosphoglyceric acid / 4-phosphopantothenate / 6-phospho-D-gluconate / FMN / IMP / Pyrophosphate / Sedoheptoluse bisphosphate / cyclic-AMP / glutathione disulfide / lactate / myo-inositol: metabolite level change after treatment; for nicotinate: metabolite nicotinate; for ornithine: metabolite ornithine; for phosphoenolpyruvate: metabolite phosphoenolpyruvate; for pyruvate: metabolite pyruvate; for ribose-phosphate: metabolite ribose-phosphate; for sarcosine/alanine: metabolite sarcosine/alanine; for sn-glycerol-3-phosphate: metabolite sn-glycerol-3-phosphate; for succinate/methylmalonic acid: metabolite succinate/methylmalonic acid; for uridine: metabolite uridine; for xanthosine: metabolite xanthosine

COc1ccc2c(=O)cc(C(Cl)(Cl)Cl)oc2c1 [MMV665820]
EC50 (P. falciparum): 520 nM
Acetyllysine [1]: -2.345
N-acetyl-L-ornithine [1]: -3.277
N-carbamoyl-L-aspartate [1]: -3.842
NADPH [1]: -0.2986
dAMP [1]: -0.8398
dCMP [1]: -0.0001746
dTDP [1]: -1.2684
dTMP [1]: -0.5586
dTTP [1]: -2.5615
dihydroorotate [1]: -2.921
orotate [1]: -2.382
DLH [1]: -2.464
DLS/SDL/SID [1]: -1.694
PD [1]: -4.28
PEE [1]: -1.0444
PVNF [1]: -2.464
3-phosphoglycerate [1]: -2.392
ADP-D-glucose [1]: -0.3227
ATP [1]: -1.288
CDP [1]: -0.9038
D-sedoheptulose-1/7-phosphate [1]: 0.5405
FAD [1]: -1.407
GMP [1]: -1.717
NAD+ [1]: -0.3778
NADP+ [1]: -0.008784
Octoluse Bisphosphate [1]: -4.199
Pyroglutamic acid [1]: 0.4738
UDP-D-glucose [1]: -0.2217
UDP-D-glucuronate [1]: -0.02834
UDP-N-acetyl-glucosamine [1]: -0.2815
UDP [1]: -0.477
UMP [1]: -2.629
UTP [1]: -1.869
a-ketoglutarate [1]: 0.2276
citrate/isocitrate [1]: -0.6427
cytidine [1]: -0.5777
dATP [1]: -2.2274
dGMP/AMP [1]: 0.08346
fumarate [1]: -2.544
glucose-1/6-phosphate [1]: -2.012
glycerate [1]: -1.622
guanine [1]: -1.809
guanosine [1]: -1.332
hypoxanthine [1]: 0.4621
indole [1]: 0.006213
inosine [1]: -2.706
2_3-Diphosphoglyceric acid [1]: -2.758
4-phosphopantothenate [1]: -2.584
6-phospho-D-gluconate [1]: -2.402
FMN [1]: -1.9
IMP [1]: -1.4619
Pyrophosphate [1]: -2.687
Sedoheptoluse bisphosphate [1]: -3.03
cyclic-AMP [1]: -3.2218
glutathione disulfide [1]: -1.807
lactate [1]: -6.313
myo-inositol [1]: -0.0001746
nicotinate [1]: -0.2855
ornithine [1]: 0.1501
phosphoenolpyruvate [1]: -1.494
pyruvate [1]: -2.492
ribose-phosphate [1]: -0.0001746
sarcosine/alanine [1]: -2.81
sn-glycerol-3-phosphate [1]: -1.932
succinate/methylmalonic acid [1]: -1.8645
uridine [1]: -1.942
xanthosine [1]: -0.05367

CCOC(=O)c1cn(CC)c2cc(N3CCCCC3)c(F)cc2c1=O [MMV665827]
EC50 (P. falciparum): 119 nM
Acetyllysine [1]: 0.6167
N-acetyl-L-ornithine [1]: 0.5501
N-carbamoyl-L-aspartate [1]: 4.792
NADPH [1]: 0.6598
dAMP [1]: 0.7737
dCMP [1]: 1.737
dTDP [1]: 0.1707
dTMP [1]: 0.8282
dTTP [1]: 0.03923
dihydroorotate [1]: 4.825
orotate [1]: -0.5812
DLH [1]: -0.7896
DLS/SDL/SID [1]: 0.01567
PD [1]: 0.7077
PEE [1]: -1.44
PVNF [1]: -0.1312
3-phosphoglycerate [1]: -0.02186
ADP-D-glucose [1]: 0.2064
ATP [1]: 0.6896
CDP [1]: 0.1387
D-sedoheptulose-1/7-phosphate [1]: 0.4202
FAD [1]: 0.7349
GMP [1]: -0.6725
NAD+ [1]: 0.4401
NADP+ [1]: 0.5706
Octoluse Bisphosphate [1]: 0.2411
Pyroglutamic acid [1]: -0.2796
UDP-D-glucose [1]: 0.1953
UDP-D-glucuronate [1]: -0.1324
UDP-N-acetyl-glucosamine [1]: 0.2567
UDP [1]: 0.4721
UMP [1]: -1.447
UTP [1]: -1.04
a-ketoglutarate [1]: -0.2461
citrate/isocitrate [1]: -1.463
cytidine [1]: 0.4678
dATP [1]: 0.6493
dGMP/AMP [1]: 0.07314
fumarate [1]: -0.2241
glucose-1/6-phosphate [1]: 1.8807
glycerate [1]: -0.09674
guanine [1]: 1.02
guanosine [1]: 0.7998
hypoxanthine [1]: -0.3352
indole [1]: -0.0107
inosine [1]: 0.5749
2_3-Diphosphoglyceric acid [1]: 0.1079
4-phosphopantothenate [1]: 0.2143
6-phospho-D-gluconate [1]: 0.3355
FMN [1]: 0.4894
IMP [1]: 0.7697
Pyrophosphate [1]: -1.117
Sedoheptoluse bisphosphate [1]: 0.6312
cyclic-AMP [1]: 0.6768
glutathione disulfide [1]: 0.6276
lactate [1]: 1.255
myo-inositol [1]: 2.498
nicotinate [1]: -0.197
ornithine [1]: 0.8346
phosphoenolpyruvate [1]: -0.2956
pyruvate [1]: 0.5345
ribose-phosphate [1]: 0.3041
sarcosine/alanine [1]: 0.4367
sn-glycerol-3-phosphate [1]: 0.2478
succinate/methylmalonic acid [1]: -0.3191
uridine [1]: 0.6011
xanthosine [1]: -0.8841
